Tests used:
[1] = tested on: S. aureus Newman; test: Bliss interaction score (quartile over a dose matrix) (fitness difference); higher = more antagonism (negative = synergy)
Outline: (§1)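 The Bliss score is observed minus expected fitness under the product model, reported as quartiles over technical, biological and donor/recipient replicates. Fitness is the OD595 at entry into stationary phase divided by the plate's robust no-drug mean and capped at 1. Single-drug fitness was inferred from combination data.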

[2] = tested on: B. subtilis 168; test: as above
Outline: as §1

[3] = tested on: S. pneumoniae D39V; test: as above
Outline: as §1

[4] = tested on: S. aureus DSM 20231; test: as above
Outline: as §1

[5] = tested on: S. pneumoniae D39V; test: fitness (endpoint OD595 vs no drug) (fraction); higher = more growth
Outline: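 Each well of a 384-well plate received 30 µl of culture at OD595 0.01, or 55 µl for S. pneumoniae. TSB, LB Lennox or CY served as media at 37 °C. OD595 was taken every 30 min for 14 h and corrected by subtracting the first reading. Fitness is the optical density at stationary-phase entry divided by the robust mean of no-drug controls, capped at 1.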
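Throughout, for Bliss interaction score (quartile over a dose matrix): first quartile when negative (synergy) and third quartile when positive (antagonism).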

CC[C@H]1OC(=O)[C@H](C)[C@@H](O[C@H]2C[C@@](C)(OC)[C@@H](O)[C@H](C)O2)[C@H](C)[C@@H](O[C@@H]2O[C@H](C)C[C@H](N(C)C)[C@H]2O)[C@](C)(OC)C[C@@H](C)C(=O)[C@H](C)[C@@H](O)[C@]1(C)O [Clarithromycin] + C[C@H]1c2cccc(O)c2C(=O)C2=C(O)[C@]3(O)C(=O)C(C(N)=O)=C(O)[C@@H](N(C)C)[C@@H]3[C@@H](O)[C@@H]21 [Doxycycline]
Settings	Bliss interaction score
[1]	-0.116
[2]	-0.324
[3]	-0.107
[4]	-0.161

fitness, [5], one replicate
Settings	first compound 0.007812 µg/mL	first compound 0.01562 µg/mL	first compound 0.03125 µg/mL	first compound 0.0625 µg/mL	first compound 0.125 µg/mL	first compound 0.25 µg/mL
partner 0.003875 µg/mL	–	–	–	0.674	0.375	0.0974
partner 0.00775 µg/mL	–	–	–	0.736	0.317	0.115
partner 0.0155 µg/mL	0.731	0.708	0.61	–	–	–
partner 0.031 µg/mL	0.681	0.669	0.609	0.464	0.143	0.101
partner 0.062 µg/mL	0.587	0.482	0.266	0.267	0.129	0.0712

fitness, [5]
Settings	first compound 0.0625 µg/mL	first compound 0.07 µg/mL	first compound 0.125 µg/mL	first compound 0.14 µg/mL	first compound 0.25 µg/mL	first compound 0.28 µg/mL
partner 0.0155 µg/mL	0.574	0.0409	0.223	0.0521	0.143	0.0358
partner 0.031 µg/mL	–	0.0283	–	0.0438	–	0.0338
partner 0.062 µg/mL	–	0.0302	–	0.0541	–	0.0267

CC[C@H]1OC(=O)[C@H](C)[C@@H](O[C@H]2C[C@@](C)(OC)[C@@H](O)[C@H](C)O2)[C@H](C)[C@@H](O[C@@H]2O[C@H](C)C[C@H](N(C)C)[C@H]2O)[C@](C)(OC)C[C@@H](C)C(=O)[C@H](C)[C@@H](O)[C@]1(C)O [Clarithromycin] + C[n+]1ccc(-c2cc[n+](C)cc2)cc1 [Paraquat]
Settings	Bliss interaction score
[1]	-0.0377
[2]	-0.0322
[3]	0.0803
[4]	-0.0525

fitness, [5], one replicate
Settings	first compound 0.007812 µg/mL	first compound 0.01562 µg/mL	first compound 0.03125 µg/mL	first compound 0.0625 µg/mL	first compound 0.125 µg/mL	first compound 0.25 µg/mL
partner 1.5 µg/mL	0.899	0.836	0.603	0.771	0.597	0.274
partner 3 µg/mL	0.918	0.871	0.62	0.788	0.684	0.324
partner 6 µg/mL	0.909	0.816	0.657	0.837	0.708	0.345

fitness, [5]
Settings	first compound 0.07 µg/mL	first compound 0.14 µg/mL	first compound 0.28 µg/mL
partner 1.5 µg/mL	0.171	0.129	0.0703
partner 3 µg/mL	0.171	0.103	0.0937
partner 6 µg/mL	0.164	0.126	0.0698

CC[C@H]1OC(=O)[C@H](C)[C@@H](O[C@H]2C[C@@](C)(OC)[C@@H](O)[C@H](C)O2)[C@H](C)[C@@H](O[C@@H]2O[C@H](C)C[C@H](N(C)C)[C@H]2O)[C@](C)(OC)C[C@@H](C)C(=O)[C@H](C)[C@@H](O)[C@]1(C)O [Clarithromycin] + Cc1cc(NS(=O)(=O)c2ccc(N)cc2)no1 [Sulfamethoxazol]
Settings	Bliss interaction score
[1]	-0.0372
[2]	0.0784
[3]	0.0413
[4]	0.0612

fitness, [5], one replicate
Settings	first compound 0.007812 µg/mL	first compound 0.01562 µg/mL	first compound 0.03125 µg/mL	first compound 0.0625 µg/mL	first compound 0.125 µg/mL	first compound 0.25 µg/mL
partner 1 µg/mL	0.925	0.809	0.67	0.699	0.466	0.168
partner 2 µg/mL	0.917	0.825	0.665	0.813	0.664	0.315
partner 4 µg/mL	0.899	0.805	0.661	0.613	0.465	0.17

fitness, [5]
Settings	first compound 0.07 µg/mL	first compound 0.14 µg/mL	first compound 0.28 µg/mL
partner 1 µg/mL	0.119	0.0685	0.0468
partner 2 µg/mL	0.11	0.0677	0.0381
partner 4 µg/mL	0.1	0.0655	0.0459

CC[C@H]1OC(=O)[C@H](C)[C@@H](O[C@H]2C[C@@](C)(OC)[C@@H](O)[C@H](C)O2)[C@H](C)[C@@H](O[C@@H]2O[C@H](C)C[C@H](N(C)C)[C@H]2O)[C@](C)(OC)C[C@@H](C)C(=O)[C@H](C)[C@@H](O)[C@]1(C)O [Clarithromycin] + Cc1ncc([N+](=O)[O-])n1CCO [Metronidazole]
Settings	Bliss interaction score
[1]	-0.0393
[2]	0.103
[3]	0.106
[4]	0.118

fitness, [5], one replicate
Settings	first compound 0.007812 µg/mL	first compound 0.01562 µg/mL	first compound 0.03125 µg/mL
partner 1.25 µg/mL	0.927	0.903	0.669
partner 2.5 µg/mL	0.926	0.891	0.692
partner 5 µg/mL	0.917	0.856	0.668

fitness, [5]
Settings	first compound 0.0625 µg/mL	first compound 0.07 µg/mL	first compound 0.125 µg/mL	first compound 0.14 µg/mL	first compound 0.25 µg/mL	first compound 0.28 µg/mL
partner 1.073 µg/mL	0.729	–	0.542	–	0.337	–
partner 1.25 µg/mL	–	0.149	–	0.0801	–	0.0663
partner 2.145 µg/mL	0.734	–	0.598	–	0.393	–
partner 2.5 µg/mL	–	0.168	–	0.0889	–	0.101
partner 4.29 µg/mL	0.688	–	0.554	–	0.257	–
partner 5 µg/mL	–	0.178	–	0.114	–	0.0828

CC[C@H]1OC(=O)[C@H](C)[C@@H](O[C@H]2C[C@@](C)(OC)[C@@H](O)[C@H](C)O2)[C@H](C)[C@@H](O[C@@H]2O[C@H](C)C[C@H](N(C)C)[C@H]2O)[C@](C)(OC)C[C@@H](C)C(=O)[C@H](C)[C@@H](O)[C@]1(C)O [Clarithromycin] + Cc1onc(-c2ccccc2)c1C(=O)N[C@@H]1C(=O)N2[C@@H]1SC(C)(C)[C@@H]2C(=O)O [Oxacillin]
Settings	Bliss interaction score
[1]	-0.0384
[2]	0.0227
[3]	0.0844
[4]	0.0328

fitness, [5], one replicate
Settings	first compound 0.007812 µg/mL	first compound 0.01562 µg/mL	first compound 0.03125 µg/mL
partner 0.01 µg/mL	0.9	0.856	0.678
partner 0.02 µg/mL	0.911	0.833	0.646
partner 0.04 µg/mL	0.414	0.48	0.418

fitness, [5]
Settings	first compound 0.0625 µg/mL	first compound 0.07 µg/mL	first compound 0.125 µg/mL	first compound 0.14 µg/mL	first compound 0.25 µg/mL	first compound 0.28 µg/mL
partner 0.005 µg/mL	–	0.179	–	0.128	–	0.119
partner 0.01 µg/mL	0.564	0.185	–	0.136	0.165	0.0928
partner 0.02 µg/mL	0.54	0.182	–	0.117	0.158	0.107
partner 0.04 µg/mL	–	–	0.254	–	0.0887	–

CC[C@H]1OC(=O)[C@H](C)[C@@H](O[C@H]2C[C@@](C)(OC)[C@@H](O)[C@H](C)O2)[C@H](C)[C@@H](O[C@@H]2O[C@H](C)C[C@H](N(C)C)[C@H]2O)[C@](C)(OC)C[C@@H](C)C(=O)[C@H](C)[C@@H](O)[C@]1(C)O [Clarithromycin] + Clc1ccc(COC(Cn2ccnc2)c2ccc(Cl)cc2Cl)c(Cl)c1 [Miconazole]
Settings	Bliss interaction score
[1]	0.0558
[2]	0.0897
[3]	0.0979
[4]	0.0854

fitness, [5], one replicate
Settings	first compound 0.007812 µg/mL	first compound 0.01562 µg/mL	first compound 0.03125 µg/mL
partner 1.25 µg/mL	0.924	0.848	0.664
partner 2.5 µg/mL	0.9	0.855	0.66
partner 5 µg/mL	0.869	0.847	0.556

[5]
Settings	fitness
first compound 0.0625 µg/mL, partner 1.073 µg/mL	0.747
first compound 0.0625 µg/mL, partner 2.145 µg/mL	0.638
first compound 0.0625 µg/mL, partner 4.29 µg/mL	0.635
first compound 0.07 µg/mL, partner 1.25 µg/mL	0.167
first compound 0.07 µg/mL, partner 2.5 µg/mL	0.185
first compound 0.07 µg/mL, partner 5 µg/mL	0.107
first compound 0.125 µg/mL, partner 4.29 µg/mL	0.448
first compound 0.14 µg/mL, partner 1.25 µg/mL	0.117
first compound 0.14 µg/mL, partner 2.5 µg/mL	0.151
first compound 0.14 µg/mL, partner 5 µg/mL	0.0925
first compound 0.25 µg/mL, partner 1.073 µg/mL	0.0979
first compound 0.25 µg/mL, partner 2.145 µg/mL	0.0742
first compound 0.25 µg/mL, partner 4.29 µg/mL	0.218
first compound 0.28 µg/mL, partner 1.25 µg/mL	0.0568
first compound 0.28 µg/mL, partner 2.5 µg/mL	0.122
first compound 0.28 µg/mL, partner 5 µg/mL	0.0835

CC[C@H]1OC(=O)[C@H](C)[C@@H](O[C@H]2C[C@@](C)(OC)[C@@H](O)[C@H](C)O2)[C@H](C)[C@@H](O[C@@H]2O[C@H](C)C[C@H](N(C)C)[C@H]2O)[C@](C)(OC)C[C@@H](C)C(=O)[C@H](C)[C@@H](O)[C@]1(C)O [Clarithromycin] + Cn1nnc(-c2ccc(-c3ccc(N4C[C@H](CO)OC4=O)cc3F)cn2)n1 [Tedizolid]
Settings	Bliss interaction score
[1]	-0.106
[2]	-0.0452
[3]	0.0824
[4]	-0.109

fitness, [5], one replicate
Settings	first compound 0.007812 µg/mL	first compound 0.01562 µg/mL	first compound 0.03125 µg/mL
partner 0.125 µg/mL	0.739	0.692	0.639
partner 0.25 µg/mL	0.701	0.685	0.686
partner 0.5 µg/mL	0.373	0.381	0.353

fitness, [5]
Settings	first compound 0.0625 µg/mL	first compound 0.07 µg/mL	first compound 0.125 µg/mL	first compound 0.14 µg/mL	first compound 0.25 µg/mL	first compound 0.28 µg/mL
partner 0.03125 µg/mL	0.715	–	0.544	–	0.317	–
partner 0.0625 µg/mL	0.727	–	0.571	–	0.336	–
partner 0.125 µg/mL	0.666	0.0645	0.511	0.053	0.275	0.0588
partner 0.25 µg/mL	–	0.0475	–	0.0527	–	0.0319
partner 0.5 µg/mL	–	0.0477	–	0.0537	–	0.0347

CC[C@H]1OC(=O)[C@H](C)[C@@H](O[C@H]2C[C@@](C)(OC)[C@@H](O)[C@H](C)O2)[C@H](C)[C@@H](O[C@@H]2O[C@H](C)C[C@H](N(C)C)[C@H]2O)[C@](C)(OC)C[C@@H](C)C(=O)[C@H](C)[C@@H](O)[C@]1(C)O [Clarithromycin] + O=C1CN(/N=C/c2ccc([N+](=O)[O-])o2)C(=O)N1 [Nitrofurantoin]
Settings	Bliss interaction score
[1]	-0.117
[2]	-0.0776
[3]	-0.0986
[4]	-0.04

fitness, [5], one replicate
Settings	first compound 0.007812 µg/mL	first compound 0.01562 µg/mL	first compound 0.03125 µg/mL	first compound 0.0625 µg/mL	first compound 0.125 µg/mL	first compound 0.25 µg/mL
partner 2 µg/mL	0.879	0.802	0.627	–	–	–
partner 4 µg/mL	0.862	0.788	0.643	–	–	–
partner 5.14 µg/mL	–	–	–	0.402	0.214	0.146
partner 8 µg/mL	0.744	0.678	0.556	–	–	–

fitness, [5]
Settings	first compound 0.0625 µg/mL	first compound 0.07 µg/mL	first compound 0.125 µg/mL	first compound 0.14 µg/mL	first compound 0.25 µg/mL	first compound 0.28 µg/mL
partner 1.285 µg/mL	0.636	–	0.263	–	0.104	–
partner 2 µg/mL	–	0.0417	–	0.0458	–	0.0401
partner 2.57 µg/mL	0.59	–	0.199	–	0.0984	–
partner 4 µg/mL	–	0.0482	–	0.0382	–	0.0171
partner 8 µg/mL	–	0.0337	–	0.0552	–	0.0141
